Source: patent US20230227492A1 (priority 2020, published 2023)
pIC50: −log10 of the molar value. Where two headings read alike, the source gives them in different places.

What was measured:
[1] = molecular target: T1, full-length, untagged, human estrogen receptors (ERα) (Homo sapiens, UniProt P03372); assay: ERα fluorescence polarization (FP) binding assay; conditions: for IC50: fluorescence polarization, Fluormone ES2, read-out: IC50 (nM) ERα
T1 construct: insect cell-expressed, full-length, untagged, human estrogen receptors; purchased Life Technologies (Carlsbad, Calif.); host or cells: insect cells
T1 sequence (P03372 whole entry): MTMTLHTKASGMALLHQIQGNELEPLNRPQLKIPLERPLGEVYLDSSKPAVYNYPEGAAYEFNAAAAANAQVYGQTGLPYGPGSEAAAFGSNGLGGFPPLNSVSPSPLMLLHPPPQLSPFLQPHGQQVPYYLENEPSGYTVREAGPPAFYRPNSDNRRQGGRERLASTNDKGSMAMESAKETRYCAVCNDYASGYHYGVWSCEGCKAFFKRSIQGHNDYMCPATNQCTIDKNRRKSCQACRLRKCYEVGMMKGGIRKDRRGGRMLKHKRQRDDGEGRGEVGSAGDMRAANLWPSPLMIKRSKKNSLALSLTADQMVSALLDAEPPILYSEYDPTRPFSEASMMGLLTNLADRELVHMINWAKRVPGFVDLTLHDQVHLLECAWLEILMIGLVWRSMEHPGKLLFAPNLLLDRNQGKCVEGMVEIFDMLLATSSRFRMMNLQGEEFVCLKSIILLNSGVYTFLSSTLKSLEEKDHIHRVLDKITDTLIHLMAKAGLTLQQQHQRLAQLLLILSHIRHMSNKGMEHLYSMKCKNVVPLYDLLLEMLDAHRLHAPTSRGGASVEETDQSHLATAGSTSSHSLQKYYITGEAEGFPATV
Experimental: (§1) Receptor Binding Assay Information—In certain of the following examples, hormone receptor binding assays were used to determine the receptor binding activities of monomeric compound embodiments to androgen (AR), progesterone (PR), estrogen alpha (ERα) or glucocorticoid (GR) receptors. For AR, PR or ERα, the respective receptors are added to novel, tight-binding, selective ligands tagged with a fluorescent molecule, to form a receptor-ligand complex with a high polarization value. This complex is then added to individual monomeric compound embodiments that are contained in well plates. If the monomeric compound binds to the respective receptors, it displaces the fluorescent ligand from the complex, resulting in a low polarization value. In such embodiments, the monomeric compound is characterized as a competitor. […] In such embodiments, the monomeric compound is characterized as a noncompetitor. The shift in polarization value in the presence of the monomeric compound is used to determine the relative affinity of monomeric compound for the receptor.
(§2) For the androgen, progesterone, and estrogen receptor binding assays described herein, the preparation of reagents and test procedures is performed according to the manufacturer's instructions (Life Technologies, Carlsbad, Calif.). The plates are covered to protect the reagents from light and incubated at 20-25° C. for 4-8 hrs.
For ERα data, the ERα fluorescence polarization (FP) assay was used, which provides a sensitive and efficient method for high-throughput screening of potential ER ligands. The kit uses insect cell-expressed, full-length, untagged, human estrogen receptors and a tight-binding, fluorescent estrogen ligand (Fluormone™ ES2) in a homogenous mix-and-read assay format. ERα was added to a fluorescent estrogen ligand to form an ERα/Fluormone™ ES2 complex. This complex was then added to individual compound embodiments contained in 96-well plates. […] The change in polarization value in the presence of a compound embodiment was used to determine relative affinity of a compound embodiment for ERα.

[2] = molecular target: T2, human full-length androgen receptor (Homo sapiens, UniProt P10275); assay: AR Transactivation Assay (MMTV-luciferase, HEC-1-B cells); type: cell-based
T2 sequence (P10275 1-920): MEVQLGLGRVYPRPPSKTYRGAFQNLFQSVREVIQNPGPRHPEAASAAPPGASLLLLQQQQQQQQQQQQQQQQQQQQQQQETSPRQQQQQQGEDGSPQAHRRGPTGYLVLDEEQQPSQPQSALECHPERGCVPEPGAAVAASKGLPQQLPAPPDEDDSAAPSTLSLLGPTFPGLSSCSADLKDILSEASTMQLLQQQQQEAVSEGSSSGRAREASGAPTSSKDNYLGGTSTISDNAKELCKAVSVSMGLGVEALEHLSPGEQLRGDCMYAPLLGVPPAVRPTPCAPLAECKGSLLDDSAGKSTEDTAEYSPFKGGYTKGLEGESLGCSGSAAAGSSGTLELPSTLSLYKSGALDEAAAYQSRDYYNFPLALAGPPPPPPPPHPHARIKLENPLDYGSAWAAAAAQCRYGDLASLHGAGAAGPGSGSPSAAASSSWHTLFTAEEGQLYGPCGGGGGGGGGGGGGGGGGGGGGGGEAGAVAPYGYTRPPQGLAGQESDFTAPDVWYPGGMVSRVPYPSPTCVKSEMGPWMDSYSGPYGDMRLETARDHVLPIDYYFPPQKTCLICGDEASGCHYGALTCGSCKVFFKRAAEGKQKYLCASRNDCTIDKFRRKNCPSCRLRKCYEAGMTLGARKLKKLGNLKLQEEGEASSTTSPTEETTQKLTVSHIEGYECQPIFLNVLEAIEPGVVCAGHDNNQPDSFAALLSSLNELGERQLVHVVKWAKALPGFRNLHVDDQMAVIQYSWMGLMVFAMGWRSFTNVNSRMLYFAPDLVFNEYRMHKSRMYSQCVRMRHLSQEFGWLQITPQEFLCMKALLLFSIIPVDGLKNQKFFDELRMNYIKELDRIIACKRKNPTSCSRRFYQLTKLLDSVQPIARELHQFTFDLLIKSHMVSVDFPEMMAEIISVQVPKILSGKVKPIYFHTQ

[3] = molecular target: T3, human PR ligand-binding domain tagged with GST [PR-LBD (GST)] (Homo sapiens, UniProt P06401); assay: PR fluorescence polarization (FP) binding assay; conditions: Fluormone PL Green
T3 construct: purchased Life Technologies (Carlsbad, Calif.)
T3 sequence (P06401 679-913 limits assumed): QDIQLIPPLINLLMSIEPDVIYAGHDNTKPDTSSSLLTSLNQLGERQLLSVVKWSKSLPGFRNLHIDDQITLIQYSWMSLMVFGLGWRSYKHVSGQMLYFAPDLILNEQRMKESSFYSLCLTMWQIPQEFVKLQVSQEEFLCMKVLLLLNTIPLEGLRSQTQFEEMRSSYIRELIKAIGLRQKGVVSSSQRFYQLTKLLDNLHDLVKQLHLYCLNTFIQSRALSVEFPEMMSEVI
Experimental: as §1
For the androgen, progesterone, and estrogen receptor binding assays described herein, the preparation of reagents and test procedures is performed according to the manufacturer's instructions (Life Technologies, Carlsbad, Calif.). The plates are covered to protect the reagents from light and incubated at 20-25° C. for 4-8 hrs. The fluorescence polarization of the samples is measured with 485 nm excitation and 530 nm emission interference filters.
In this example, PR binding activity was assessed using the PR fluorescence polarization (FP) assay, which provides a sensitive and efficient method for high-throughput screening of potential PR ligands. The kit uses human PR ligand-binding domain tagged with GST [PR-LBD (GST)], and a tight-binding, selective fluorescent progesterone ligand (Fluormone™ PL Green) in a homogenous mix-and-read assay format. Progesterone receptor [PR-LBD (GST)] was added to a fluorescent progesterone ligand (Fluormone™ PL Green) to form a PR-LBD (GST)/Fluormone™ PL Green complex resulting in a high polarization value. This complex was then added to individual compound embodiments in 96-well plates. Competitors displaced the fluorescent Fluormone™ PL Green ligand from the PR-LBD (GST)/Fluormone™ PL Green complex, causing the fluorescent ligand to tumble rapidly during its fluorescence lifetime, resulting in a low polarization value. […] The shift in polarization value in the presence of compound embodiments was used to determine relative affinity of compound embodiments for PR-LBD (GST). The fluorescence polarization of the samples was measured with 485 nm excitation and 530 nm emission interference filters. Results for monomeric compound embodiments wherein the R^2 groups is not present (such as to test compound activity after R^2 cleavage) are provided in Table 4.

[4] = molecular target: T4, rat AR ligand-binding domain tagged with His and GST [AR-LBD (His-GST)] (Rattus norvegicus, UniProt P15207); assay: AR fluorescence polarization (FP) binding assay; conditions: Fluormone AL Green
T4 construct: purchased Life Technologies (Carlsbad, Calif.)
T4 sequence (P15207 651-882 limits assumed): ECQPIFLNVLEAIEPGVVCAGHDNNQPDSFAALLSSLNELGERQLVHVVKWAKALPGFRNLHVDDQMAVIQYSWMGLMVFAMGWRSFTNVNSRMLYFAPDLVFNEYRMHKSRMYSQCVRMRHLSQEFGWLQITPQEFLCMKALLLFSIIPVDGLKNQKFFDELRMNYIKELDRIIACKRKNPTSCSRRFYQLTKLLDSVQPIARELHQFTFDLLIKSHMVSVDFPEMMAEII
Experimental: as §1, §2
In this example, AR binding activity and ER binding activity of certain reference compounds and monomeric compound embodiments wherein the R^2 group is not present was assessed (such as to test compound activity after R^2 cleavage). The AR fluorescence polarization (FP) assay was used and provides a sensitive and efficient method for high-throughput screening of potential AR ligands. The kit uses rat AR ligand-binding domain tagged with His and GST [AR-LBD (His-GST)], and a tight-binding, selective fluorescent androgen ligand (Fluormone™ AL Green) in a homogenous mix-and-read assay format. The androgen receptor [AR-LBD (His-GST)] was added to a fluorescent androgen ligand (Fluormone™ AL Green) to form an AR-LBD (His-GST)/Fluormone™ AL Green complex resulting in a high polarization value. This complex was then added to individual compound embodiments in 96-well plates. Competitors displaced the fluorescent Fluormone™ AL Green ligand from the AR-LBD (His-GST)/Fluormone™ AL Green complex, causing the fluorescent ligand to tumble rapidly during its fluorescence lifetime, resulting in a low polarization value. […] The shift in polarization value in the presence of compound embodiments used to determine relative affinity of compound embodiments for AR-LBD (His-GST).

[5] = human, plasma
[6] = test system: castrated weanling rats; conditions: rat, in vivo
[7] = molecular target: T5, recombinant human aromatase (Homo sapiens, UniProt P11511); assay: Aromatization by recombinant human aromatase (CYP19+P450 reductase Supersomes); conditions: 10 μM, 37° C.
T5 sequence (P11511 1-503): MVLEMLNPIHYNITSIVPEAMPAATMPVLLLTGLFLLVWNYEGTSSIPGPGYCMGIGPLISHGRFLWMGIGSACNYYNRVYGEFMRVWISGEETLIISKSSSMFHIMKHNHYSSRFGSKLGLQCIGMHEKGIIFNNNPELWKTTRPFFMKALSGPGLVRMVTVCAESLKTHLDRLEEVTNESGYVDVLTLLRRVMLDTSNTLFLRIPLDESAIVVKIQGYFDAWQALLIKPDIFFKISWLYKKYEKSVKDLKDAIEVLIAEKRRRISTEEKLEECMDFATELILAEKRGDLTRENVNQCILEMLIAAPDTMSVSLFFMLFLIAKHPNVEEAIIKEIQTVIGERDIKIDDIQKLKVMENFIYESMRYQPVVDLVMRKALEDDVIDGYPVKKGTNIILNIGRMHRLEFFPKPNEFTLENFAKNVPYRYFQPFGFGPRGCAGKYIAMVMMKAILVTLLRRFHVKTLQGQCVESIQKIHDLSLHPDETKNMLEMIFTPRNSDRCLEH

[8] = test system: castrated Sprague-Dawley male rats; assay: Hershberger assay, ventral prostate weights (7α-methyl testosterone); type: in vivo, rat

SMILES | IC50 [1] [nM] | IC50 ([3]; read-out: IC50 (nM) PR binding) [nM] | IC50 (nM) AR [4] [nM] | % remaining at 15 min [7] [%] | % remaining at 30 min [7] [%] | % remaining at 60 min [7] [%] | other results
CC1Cc2cc(O)ccc2C2CCC3(C)C(O)CCC3C12 (stereo not drawn) [CDB 4915, 7α-methyl estradiol] | 10.3 | 502 | 20.1 |  |  |  | EC50 [2]: 39 nM
CC1CC2(C)C(O)CCC2C2C(C)Cc3cc(O)ccc3C12 (stereo not drawn) [CDB 4916, 7α, 11β-dimethyl estradiol] | 13.8 | 165 | 17.8 |  |  |  | EC50 [2]: 3.68 nM
CC1CC2(C)C(O)CCC2C2CCc3cc(O)ccc3C12 (stereo not drawn) [CDB 4917, 11β-methyl estradiol] | 12 | 120 | 12.8 |  |  |  | 
C[C@@H]1CC2=CC(=O)CC[C@@H]2[C@H]2CC[C@]3(C)[C@@H](O)CC[C@H]3[C@@H]21 [CDB-902, 7-α-methylnortestosterone, reference compound] |  |  |  |  |  |  | Parent molecule % remaining after 24 hours at 37° C. [5]: 100≤ %
C[C@@H]1CC2=CC(=O)CCC2C2C1C1CC[C@H](OC(=O)CCCCCCCCCCC(=O)O[C@H]3CCC4C5C(C6CCC(=O)C=C6C[C@H]5C)[C@@H](C)C[C@@]43C)[C@@]1(C)C[C@@H]2C (stereo partly drawn) [CDB-4867] |  |  |  |  |  |  | Parent molecule % remaining after 24 hours at 37° C. ([5]; male): 100≤ %; AUC (Levator ani muscle) [6]: 5059 mg*week; AUC (Ventral Prostate) [6]: 529.5 mg*week; duration of levator ani muscle weight increase (anabolic effects) [6]: sustained until Day 99 (Week 14); duration of ventral prostate weight increase (androgenic effects) [6]: sustained until Day 99 (Week 14); ventral prostate gland weights relative to vehicle [6]: increased
CC1CC2(C)C(O)CCC2C2CCC3=CC(=O)CCC3=C12 (stereo not drawn) [CDB-4890, 11β, 4,9 diene-MNT] | 6680 | 43.5 | 15.5 |  |  |  | 
C[C@@H]1CC2=CC(=O)CC[C@]2(C)C2CC[C@@]3(C)C(CC[C@@H]3O)C21 (stereo partly drawn) [CDB-4910, 7α-methyl testosterone] |  |  |  | 57.6 | 20.2 | 0.1 | pIC50 [1]: 5.11; IC50 ([3]; IC50 (nM) PR binding): 395 nM; Ventral Prostate (weight in gram) ([8]; Conc. in mmole 0.7): 0.076 gram; Ventral Prostate (weight in gram) ([8]; Conc. in mmole 2.8): 0.13 gram; Ventral Prostate (weight in gram) ([8]; Conc. in mmole 11.2): 0.14 gram
C[C@@H]1CC2CC(=O)CC[C@]2(C)C2CC[C@@]3(C)C(CC[C@@H]3O)C21 (stereo partly drawn) [CDB-4922, 7α-methyldihydro testosterone] |  |  | 57.1 | 66.8 | 38.0 | 10.1 | pIC50 [1]: 4.58; IC50 ([3]; IC50 (nM) PR binding): 1890 nM
C[C@]12CC[C@H]3[C@@H](CCC4=CC(=O)CC[C@@]43C)[C@@H]1CC[C@@H]2O [Testosterone, reference compound] |  |  |  | 31.4 | 0.1 | 0.1 | Ventral Prostate (weight in gram) ([8]; Conc. in mmole 6.9): 0.12 gram
